Results published in patent publication US11708348B2, “Protease inhibitors for treatment of coronavirus infections” (The Scripps Research Institute, priority 2021, dated 2023).
Like-named read-outs stand apart in the source and are kept apart here.

Tested on: SARS-CoV-2 strain USA-WA1/2020
Test: microbe, parasite or virus in culture
Type: cell-based
Conditions: Severe acute respiratory syndrome coronavirus 2, HeLa-ACE2, 24 h, HeLa-ACE2 cells, SARS-CoV-2 infection, 24 h, read-out: EC50, uM (Hela)

Row | Compound | EC50 | EC50 (given as bound)
1 | Cc1ccccc1NC(=O)C(=O)N1C[C@@H]2CCC[C@@H]2[C@H]1C(=O)N[C@@H](C[C@@H]1CCNC1=O)C(=O)COC(F)(F)F [Compound 513, (1S,3aR,6aS)-N-((S)-3-oxo-1-((S)-2-oxopyrrolidin-3-yl)-4-(trifluoromethoxy)butan-2-yl)-2-(2-oxo-2-(o-tolylamino)acetyl)-octahydrocyclo-penta[c]pyrrole-1-carboxamide] | < 0.05 µM | –
2 | CC(C)(C)NC(=O)C(=O)N1CC2(COC2)C[C@@H]1C(=O)N[C@@H](C[C@@H]1CCNC1=O)C(=O)COC(F)(F)F [Compound 514, (R)-6-(2-(tert-butylamino)-2-oxoacetyl)-N-((S)-3-oxo-1-((S)-2-oxopyrrolidin-3-yl)-4-(trifluoromethoxy)butan-2-yl)-2-oxa-6-azaspiro[3.4]octane-7-carboxamide] | 0.5 to 1 µM | –
3 | CC(C)(C)NC(=O)C(=O)N1CC2(COC2)C[C@H]1C(=O)N[C@@H](C[C@@H]1CCNC1=O)C(=O)COC(F)(F)F [Compound 515, (S)-6-(2-(tert-butylamino)-2-oxoacetyl)-N-((S)-3-oxo-1-((S)-2-oxopyrrolidin-3-yl)-4-(trifluoromethoxy)butan-2-yl)-2-oxa-6-azaspiro[3.4]octane-7-carboxamide] | – | > 1 µM
4 | CC1(C)[C@@H]2[C@@H](C(=O)N[C@@H](C[C@@H]3CCNC3=O)C(=O)COC(F)(F)F)N(C(=O)C(=O)NCC(F)F)C[C@@H]21 [Compound 516, (1R,2S,5S)-3-(2-((2,2-difluoroethyl)amino)-2-oxoacetyl)-6,6-dimethyl-N-((S)-3-oxo-1-((S)-2-oxopyrrolidin-3-yl)-4-(trifluoromethoxy)butan-2-yl)-3-azabicyclo-[3.1.0]hexane-2-carboxamide] | 0.05 to 0.2 µM | –
5 | O=C(NCC(F)(F)F)C(=O)N[C@@H](CC1CC1)C(=O)N[C@@H](C[C@@H]1CCNC1=O)C(=O)COC(F)(F)F [Compound 517, N1-((S)-3-cyclopropyl-1-oxo-1-(((S)-3-oxo-1-((S)-2-oxopyrrolidin-3-yl)-4-(trifluoromethoxy)butan-2-yl)amino)propan-2-yl)-N2-(2,2,2-trifluoroethyl)oxalamide] | < 0.05 µM | –
6 | CC(C)(C)NC(=O)C(=O)N1C[C@@]2(C[C@H]1C(=O)N[C@@H](C[C@@H]1CCNC1=O)C(=O)COC(F)(F)F)CC2(F)F [Compound 518, (3R,6S)-5-(2-(tert-butylamino)-2-oxoacetyl)-1,1-difluoro-N-((S)-3-oxo-1-((S)-2-oxopyrrolidin-3-yl)-4-(trifluoromethoxy)butan-2-yl)-5-azaspiro[2.4]-heptane-6-carboxamide] | 0.05 to 0.2 µM | –
7 | O=C(NCC(F)F)C(=O)N1C[C@@H]2CCC[C@@H]2[C@H]1C(=O)N[C@@H](C[C@@H]1CCNC1=O)C(=O)COC(F)(F)F [Compound 519, (1S,3aR,6aS)-2-(2-((2,2-difluoroethyl)amino)-2-oxoacetyl)-N-((S)-3-oxo-1-((S)-2-oxopyrrolidin-3-yl)-4-(trifluoromethoxy)butan-2-yl)octahydrocyclo-penta[c]pyrrole-1-carboxamide] | 0.2 to 0.5 µM | –
8 | CC(C)(C)NC(=O)C(=O)N1C[C@@H]2CC(F)(F)C[C@@H]2[C@H]1C(=O)N[C@@H](C[C@@H]1CCNC1=O)C(=O)COC(F)(F)F [Compound 520, (1S,3aR,6aS)-2-(2-(tert-butylamino)-2-oxoacetyl)-5,5-difluoro-N-((S)-3-oxo-1-((S)-2-oxopyrrolidin-3-yl)-4-(trifluoromethoxy)butan-2-yl)octahydrocyclo-penta[c]pyrrole-1-carboxamide] | 0.05 to 0.2 µM | –
9 | CC(C)(C)NC(=O)C(=O)N1[C@@H]2C[C@@H]2C[C@H]1C(=O)N[C@@H](C[C@@H]1CCNC1=O)C(=O)COC(F)(F)F [Compound 521] | 0.2 to 0.5 µM | –
10 | CC(C)(C)NC(=O)C(=O)N1CC2(CCOCC2)CC1C(=O)N[C@@H](C[C@@H]1CCNC1=O)C(=O)COC(F)(F)F (stereo partly drawn) [Compound 522, 2-(2-(tert-butylamino) -2-oxoacetyl)-N-((S)-3-oxo-1-((S)-2-oxopyrrolidin-3-yl)-4-(trifluoromethoxy)butan-2-yl)-8-oxa-2-azaspiro[4.5]decane-3-carboxamide] | 0.5 to 1 µM | –
11 | O=C(NC1CC(F)(F)C1)C(=O)N1C[C@@H]2CCC[C@@H]2[C@H]1C(=O)N[C@@H](C[C@@H]1CCNC1=O)C(=O)COC(F)(F)F [Compound 523, (1S,3aR,6aS)-2-(2-((3,3-difluorocyclobutyl)-amino)-2-oxoacetyl)-N-((S)-3-oxo-1-((S)-2-oxopyrrolidin-3-yl)-4-(trifluoromethoxy)butan-2-yl)octahydrocyclo-penta[c]pyrrole-1-carboxamide] | < 0.05 µM | –
12 | Cc1ccccc1NC(=O)C(=O)NC(CC1CCOCC1)C(=O)N[C@@H](C[C@@H]1CCNC1=O)C(=O)COC(F)(F)F (stereo partly drawn) [Compound 524, N1-(1-oxo-1-(((S)-3-oxo-1-((S)-2-oxopyrrolidin-3-yl)-4-(trifluoromethoxy)butan-2-yl)amino)-3-(tetrahydro-2H-pyran-4-yl)propan-2-yl)-N2-(o-tolyl)oxalamide] | < 0.05 µM | –
13 | O=C(NC12CC(F)(C1)C2)C(=O)N1C[C@@H]2CCC[C@@H]2[C@H]1C(=O)N[C@@H](C[C@@H]1CCNC1=O)C(=O)COC(F)(F)F [Compound 525, (1S,3aR,6aS)-2-(2-((3-fluorobicyclo[1.1.1]-pentan-1-yl)amino)-2-oxoacetyl)-N-((S)-3-oxo-1-((S)-2-oxopyrrolidin-3-yl)-4-(trifluoromethoxy)butan-2-yl)octahydrocyclo-penta[c]pyrrole-1-carboxamide] | < 0.05 µM | –
14 | CC(C)(NC(=O)C(=O)N1C[C@@H]2CCC[C@@H]2[C@H]1C(=O)N[C@@H](C[C@@H]1CCNC1=O)C(=O)COC(F)(F)F)C(F)(F)F [Compound 526, (1S,3aR,6aS)-N-((S)-3-oxo-1-((S)-2-oxopyrrolidin-3-yl)-4-(trifluoromethoxy)butan-2-yl)-2-(2-oxo-2-((1,1,1-trifluoro-2-methylpropan-2-yl)amino)acetyl)-octahydrocyclopenta[c]-pyrrole-1-carboxamide] | < 0.05 µM | –
15 | Cc1ccccc1NC(=O)C(=O)N1CC2(CC2)C[C@H]1C(=O)N[C@@H](C[C@@H]1CCNC1=O)C(=O)COC(F)(F)F [Compound 527, (S)-N-((S)-3-oxo-1-((S)-2-oxopyrrolidin-3-yl)-4-(trifluoromethoxy)butan-2-yl)-5-(2-oxo-2-(o-tolylamino)acetyl)-5-azaspiro[2.4]heptane-6-carboxamide] | < 0.05 µM | –
16 | CC(C)(C)C[C@H](NC(=O)C(=O)Nc1ccccc1F)C(=O)N[C@@H](C[C@@H]1CCNC1=O)C(=O)COC(F)(F)F [Compound 528, N1-((S)-4,4-dimethyl-1-oxo-1-(((S)-3-oxo-1-((S)-2-oxopyrrolidin-3-yl)-4-(trifluoromethoxy)butan-2-yl)amino)pentan-2-yl)-N2-(2-fluorophenyl)-oxalamide] | < 0.05 µM | –
17 | CN(C(=O)C(=O)NC(C)(C)C)[C@H](C(=O)N[C@@H](C[C@@H]1CCNC1=O)C(=O)COC(F)(F)F)C1CCCC1 [Compound 529, N1-(tert-butyl)-N2-((S)-1-cyclopentyl-2-oxo-2-(((S)-3-oxo-1-((S)-2-oxopyrrolidin-3-yl)-4-(trifluoromethoxy)butan-2-yl)amino)ethyl)-N2-methyloxalamide] | 0.05 to 0.2 µM | –
18 | O=C(Nc1ccccc1F)C(=O)N1CC2(CCOCC2)CC1C(=O)N[C@@H](C[C@@H]1CCNC1=O)C(=O)COC(F)(F)F (stereo partly drawn) [Compound 530, 2-(2-((2-fluorophenyl)amino)-2-oxoacetyl)-N-((S)-3-oxo-1-((S)-2-oxopyrrolidin-3-yl)-4-(trifluoromethoxy)butan-2-yl)-8-oxa-2-azaspiro[4.5]decane-3-carboxamide] | 0.5 to 1 µM | –
19 | CC(C)(C)NC(=O)C(=O)N1CC2(CCCCC2)CC1C(=O)N[C@@H](C[C@@H]1CCNC1=O)C(=O)COC(F)(F)F (stereo partly drawn) [Compound 531, 2-(2-(tert-butylamino)-2-oxoacetyl)-N-((S)-3-oxo-1-((S)-2-oxopyrrolidin-3-yl)-4-(trifluoromethoxy)butan-2-yl)-2-azaspiro[4.5]decane-3-carboxamide] | < 0.05 µM | –
20 | CC(C)(C)C[C@H](NC(=O)c1cc(C(F)F)on1)C(=O)N[C@@H](C[C@@H]1CCNC1=O)C(=O)COC(F)(F)F [Compound 532, 5-(difluoromethyl)-N-((S)-4,4-dimethyl-1-oxo-1-(((S)-3-oxo-1-((S)-2-oxopyrrolidin-3-yl)-4-(trifluoromethoxy)butan-2-yl)amino)pentan-2-yl)isoxazole-3-carboxamide] | < 0.05 µM | –
21 | Cn1ccc(C(=O)N2C[C@@H]3CCC[C@@H]3[C@H]2C(=O)N[C@@H](C[C@@H]2CCNC2=O)C(=O)COC(F)(F)F)n1 [Compound 533, (1S,3aR,6aS)-2-(1-methyl-1H-pyrazole-3-carbonyl)-N-((S)-3-oxo-1-((S)-2-oxopyrrolidin-3-yl)-4-(trifluoromethoxy)butan-2-yl)octahydrocyclo-penta[c]pyrrole-1-carboxamide] | 0.5 to 1 µM | –
22 | Cn1ccc(NC(=O)C(=O)N2C[C@@H]3CCC[C@@H]3[C@H]2C(=O)N[C@@H](C[C@@H]2CCNC2=O)C(=O)COC(F)(F)F)n1 [Compound 534, (1S,3aR,6aS)-2-(2-((l-methyl-1H-pyrazol-3-yl)amino)-2-oxoacetyl)-N-((S)-3-oxo-1-((S)-2-oxopyrrolidin-3-yl)-4-(trifluoromethoxy)butan-2-yl)octahydrocyclo-penta[c]pyrrole-1-carboxamide] | 0.05 to 0.2 µM | –
23 | Cn1ccc(NC(=O)C(=O)N2C[C@H]3[C@@H]([C@H]2C(=O)N[C@@H](C[C@@H]2CCNC2=O)C(=O)COC(F)(F)F)C3(C)C)n1 [Compound 535, (1R,2S,5S)-6,6-dimethyl-3-(2-((l-methyl-1H-pyrazol-3-yl)amino)-2-oxoacetyl)-N-((S)-3-oxo-1-((S)-2-oxopyrrolidin-3-yl)-4-(trifluoromethoxy)butan-2-yl)-3-azabicyclo-[3.1.0]hexane-2-carboxamide] | 0.05 to 0.2 µM | –
